US20090269416A1, “Compositions and Methods For Preventing or Treating Chronic Renal Failure in Felines With Hyperthyroidism” (HILL'S PET NUTRITION , INC., priority 2006, published 2009)

Test system: cats diagnosed with hyperthyroidism
Experiment: Six-week feeding/treatment study in hyperthyroid cats (Example 1): thyroid hormone profiles and serum chemistries
Assay type: in vivo
Details: six weeks
Procedure: Food B1 and food B2 were mixed in a 1:1 ratio, thus resulting in food B. A group of five cats diagnosed with hyperthyroidism was fed food B for six weeks. Another live cats diagnosed with hyperthyroidism were given 2.5 mg methimazole orally once a day for six weeks while they were fed food B. Eight eats diagnosed with hyperthyroidism were given 2.5 mg methimazole orally once a day for six weeks while they were fed a commercially available cat food. The thyroid hormone profiles and serum chemistries of all cats were measured at zero, two, four, and six weeks.

[1] = hyperthyroid cats, methimazole 2.5 mg orally once a day, food B fed

**Q.** What does the source list for `Cn1cc[nH]c1=S` [Methimazole, methimazole]?
**A.** Change in Serum Creatinine Levels [1]: +0.46 mg/dL; Change in Serum Total T4 Levels [1]: -20.3 nmol/L; serum creatinine concentration relative to the normal creatinine concentration range (normal range 0.8-1.8 mg/dL): a bit higher than die 0.8-1.8 mg/dL normal creatinine concentration range; serum total T4 concentration relative to the normal total T4 concentration range (normal range printed as 10-55 nmol/dL): did not reach the normal total T4 concentration range
